Source: publication PMC6536371 (Chemical biology & drug design, 2018)

Biological target: MT1-MMP (Homo sapiens, UniProt P50281)
Assay: FRET triple-helical peptide
Type: biochemical

CNC(=O)[C@@H](NC(=O)[C@H](CC(C)C)[C@H](O)C(=O)NO)C(C)(C)C [marimastat]
IC50: 19 ± 3 nM
